Test results reported in patent US20070167408A1, “NOVEL ALKYL PHOSPHOLIPID DERIVATIVES WITH REDUCED CYTOTOXICITY AND USES THEREOF” (ZENTARIS GmbH, priority 2005, published 2007).
In brackets after ≈: the same amount, converted by molar mass.

Columns and labels:
[1] = tested on: Trypanosoma cruzi (Tulahuan-LACZ amstigotes in PEM); assay: In vitro drug activity assay, protozoon A; format: cell-based; settings: amastigotes in murine peritoneal macrophages, 3 days
Experimental: (§1) In vitro activity of selected compounds of the invention against different protozoa was assessed as follows.
Murine (CD1) peritoneal macrophages were harvested 24 hours after starch induction and dispensed into 96-well plates at a concentration of 4×10^5 mL. After 24 hours, the cells were infected with Trypanosoma cruzi Tulahuan LAC-Z amastigotes (grown and cultured according to Buckner et al., Infection and Immunity 1999, 67(1): 403-409). 24 hours later, the infected cells were exposed to the test compounds (compounds of the invention as well as known prior art compounds) for 3 days and 50 μL of 500 μM CPRG-1% Nonidet P-40 was added to each well. The plates were read after 2 to 5 hours at 570 nm (Buckner et al., Antimicrobial Agents and Chemotherapy 1996, 40(11): 2592-2597). ED50 values were calculated with Msxlfit (IDBS).
(§2) The following protozoa were assessed: • A) Trypanosoma cruzi (Tulahuan-LACZ amstigotes in PEM, Lorente S O et al., Antimicrobial agents and chemotherapy 2004, 48(8): 2937-2950; Buckner et al., Infection and Immunity 1999, 67(1): 403-409; Buckner et al., Antimicrobial Agents and Chemotherapy 1996, 40(11): 2592-2597) • B) Trypanosoma brucei rhodesiense (strain STIB900, Lorente S O et al., Antimicrobial agents and chemotherapy 2004, 48(8): 2937-2950; Habtemariam S, BMC Pharmacology 2003, 3:6) • C) Plasmodium falciparum (strain K1, Korsinczky M et al., Antimicrobial agents and chemotherapy 2000, 44(8): 2100-2108; Thaitong S and Beale G H, Trans. R. Soc. Trop. Med. Hyg. 1981, 75: 271-273; Trager W and Jensen J B, Science 1976, 193: 673-675) • D) Plasmodium faiciparum (strain 3D7, Mu et al., PLoS Biology 2005, 3(10): e335)

[2] = tested on: Cryptococcus neoformans H99; assay: Anti-fungal broth microdilution (MIC), fungus I; format: cell-based; settings: yeast protocol, more than 80% inhibition, 48 h
Experimental: (§3) Anti-fungal activity of selected compounds of the invention was assessed by means of anti-fungal susceptibility tests as follows.
(§4) The antifungal activities of the compounds of the invention against different fungi were measured according to standard broth microdilution methods of the US National Committee for Clinical Laboratory standards (NCCLS) for yeasts (NCCLS document M27-A, 1997) and filamentous fungi (NCCLS document M38-A, 2002).
(§5) Stock solutions of compounds of the invention were freshly prepared on the days of experiments equal to 1.28 mg/10 ml media. Serial dilutions were performed to achieve the following testing concentrations: 64 μg/ml, 32 μg/ml, 16 μg/ml, 8 μg/ml, 4 μg/ml, 2 μg/ml, 1 μg/ml, 0.5 μg/ml, 0.25 μg/ml and 0.125 μg/ml.
(§6) An inoculum of 10^6 CFU/ml of the fungi strain was prepared in the appropriate medium and transferred to test tubes for incubation.
(§7) The method is used to determine the minimum inhibitory concentrations (MIC) of drugs on fungi strains. […] For the filamentous fungi protocol, MIC determination took place after 48 to 72 h of culture at 35° C. and was defined at that concentration which produced more than 50% visible growth inhibition.

[3] = tested on: Cryptococcus gattii ATCC 32608; assay: Anti-fungal broth microdilution (MIC), fungus J; format: cell-based; settings: yeast protocol, more than 80% inhibition, 48 h
Experimental: as §3, §4, §5, §6, §7

[4] = tested on: Candida parapsilosis ATCC 22019; assay: Anti-fungal broth microdilution (MIC), fungus G; format: cell-based; settings: yeast protocol, more than 80% inhibition, 48 h
Experimental: as §3, §4, §5, §6, §7

[5] = tested on: Cryptococcus neoformans ATCC 90112; assay: Anti-fungal broth microdilution (MIC), fungus H; format: cell-based; settings: yeast protocol, more than 80% inhibition, 48 h
Experimental: as §3, §4, §5, §6, §7

[6] = tested on: Aspergillus fumigatus 040-200167; assay: Anti-fungal broth microdilution (MIC), fungus C; format: cell-based; settings: filamentous protocol, more than 50% growth inhibition, 48 to 72 h
Experimental: as §3, §4, §5, §6, §7

[7] = tested on: Plasmodium falciparum (strain K1); assay: In vitro drug activity assay, protozoon C; format: cell-based; settings: strain K1, 3[H]-hypoxanthine method
Experimental: as §1
(§8) Plasmodium falciparum strain K1 and strain 3D7 parasites were cultured according to Trager W and Jensen J B (Science 1976, 193: 673-675). In vitro drug susceptibility assays with the test compounds were carried out according to Korsinczky M et al. (Antimicrobial agents and chemotherapy 2000, 44(8): 2100-2108) and Fivelman Q L et al. (Antimicrobial agents and chemotherapy 2004, 48(11): 4097-4102) using a ^3[H]-hypoxanthine radioisotope method. ED50 values were calculated with Msxlfit (IDBS).
as §2

[8] = tested on: Aspergillus fumigatus 322-384; assay: Anti-fungal broth microdilution (MIC), fungus B; format: cell-based; settings: filamentous protocol, more than 50% growth inhibition, 48 to 72 h
Experimental: as §3, §4, §5, §6, §7

[9] = tested on: Trypanosoma brucei rhodesiense (strain STIB900); assay: In vitro drug activity assay, protozoon B; format: cell-based; settings: bloodstream form trypomastigotes, 72 hours, Alamar Blue
Experimental: as §1
Trypanosoma brucei rhodesiense STIB900 bloodstream form trypomastigotes were maintained in HMI-18 medium (Hirumi H, Hirumi K, J Parasitol. 1989, 75(6):985-989) with 15% heat-inactivated fetal calf serum at 37° C., 5% CO2, humidified atmosphere. Trypomastigotes were washed and resuspended in fresh medium at a concentration of 2×10^5 mL. Test compounds were given to the trypomastigotes and plates were incubated for 72 hours at 37° C., 5% CO2, humidified atmosphere. At 72 hours the plates were assessed microscopically before Alamar Blue was added (Raz et al., Acta Trop. 1997, 68: 139-147). Plates were read after 5 to 6 hours at EX/EM 530/585 nm with a filter cutoff at 550 nm. ED50 values were calculated with Msxlfit (IDBS).
as §2

[10] = tested on: Plasmodium faiciparum (strain 3D7); assay: In vitro drug activity assay, protozoon D; format: cell-based, Plasmodium falciparum; settings: strain 3D7, 3[H]-hypoxanthine method
Experimental: as §1, §8, §2

[11] = tested on: Aspergillus fumigatus ATCC 204305; assay: Anti-fungal broth microdilution (MIC), fungus A; format: cell-based; settings: filamentous protocol, more than 50% growth inhibition, 48 to 72 h
Experimental: as §3, §4, §5, §6, §7

[12] = tested on: Candida albicans ATCC 90028; assay: Anti-fungal broth microdilution (MIC), fungus E; format: cell-based; settings: yeast protocol, more than 80% inhibition, 48 h
Experimental: as §3, §4, §5, §6, §7

[13] = tested on: Candida albicans ATCC 10231; assay: Anti-fungal broth microdilution (MIC), fungus D; format: cell-based; settings: yeast protocol, more than 80% inhibition, 48 h
Experimental: as §3, §4, §5, §6, §7

Candida albicans TS3 = assay: Anti-fungal broth microdilution (MIC), fungus F; format: cell-based; settings: yeast protocol, more than 80% inhibition, 48 h
Experimental: as §3, §4, §5, §6, §7

Row | SMILES | ED50 (μg/mL), protozoon A [1] [µg/mL] | MIC, fungus I [2] [µg/mL] | MIC, fungus J [3] [µg/mL] | MIC, fungus G [4] [µg/mL] | MIC, fungus H [5] [µg/mL] | MIC, fungus C [6] [µg/mL] | ED50 (μg/mL), protozoon C [7] [µg/mL] | MIC, fungus B [8] [µg/mL] | ED50 (μg/mL), protozoon B [9] [µg/mL] | ED50 (μg/mL), protozoon D [10] [µg/mL] | MIC, fungus A [11] [µg/mL] | MIC, fungus E [12] [µg/mL] | MIC, fungus D [13] [µg/mL] | MIC, fungus F (Candida albicans TS3) [µg/mL]
1 | CCCCCCCCCCCCCCCCOP(=O)([O-])OC1CC[N+](C)(Cc2ccccc2)CC1 (stereo not drawn) [Compound 1, Phosphoric acid 1-benzyl-1-methyl-piperidin-4-yl ester hexadecyl ester] | 1.71 (≈ 3.35 µM) | 2 (≈ 3.92 µM) | 1 (≈ 1.96 µM) | 3 (≈ 5.89 µM) | 1.5 (≈ 2.94 µM) | 4 (≈ 7.85 µM) | 6.93 (≈ 13.6 µM) | 2 (≈ 3.92 µM) | 18.80 (≈ 36.9 µM) | 9.97 (≈ 19.6 µM) | 2 (≈ 3.92 µM) | 1 (≈ 1.96 µM) | 2 (≈ 3.92 µM) | 1.5 (≈ 2.94 µM)
2 | CCCCCCCCCCCCCCCCOP(=O)([O-])OC1CC[N+](C)(CCc2ccccc2)CC1 (stereo not drawn) [Compound 4, Phosphoric acid hexadecyl ester 1-methyl-1-phenethyl-piperidin-4-yl ester] | 1.93 (≈ 3.69 µM) | – | – | – | – | – | 5.44 (≈ 10.4 µM) | – | 12.29 (≈ 23.5 µM) | 15.32 (≈ 29.3 µM) | – | – | – | –
